# Assay results published in ChEMBL document CHEMBL5465560, “Selectivity Literature for EUbOPEN Chemogenomic Library” (2024).
# Tests used:
# [1] = target: Cyclin-dependent kinase 9 (Homo sapiens, UniProt P50750); conditions: at 10 µM
# [2] = target: Cyclin-dependent kinase 17 (Homo sapiens) (UniProt Q00537); conditions: at 10 µM
# [3] = target: T1, Aurora kinase C (Homo sapiens) (UniProt Q9UQB9); assay: Selectivity interaction (ActivX KiNativ screen (kinase selectivity in THP-1 cell lysates)) EUB0000639a AURKC; assay type: subcellular; conditions: lysate
# T1 sequence (whole entry): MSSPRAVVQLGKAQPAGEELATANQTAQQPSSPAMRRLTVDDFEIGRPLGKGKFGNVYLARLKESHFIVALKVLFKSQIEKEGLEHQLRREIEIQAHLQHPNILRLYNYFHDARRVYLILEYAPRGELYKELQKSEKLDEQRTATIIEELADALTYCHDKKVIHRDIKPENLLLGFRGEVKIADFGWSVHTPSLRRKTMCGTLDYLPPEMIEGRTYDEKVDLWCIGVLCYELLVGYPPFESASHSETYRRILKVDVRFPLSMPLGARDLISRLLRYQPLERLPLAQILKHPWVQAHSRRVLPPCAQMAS
# [4] = target: T2, Phosphorylase b kinase gamma catalytic chain, liver/testis isoform (Homo sapiens) (UniProt P15735); assay: Selectivity interaction (ActivX KiNativ screen (kinase selectivity in THP-1 cell lysates)) EUB0000639a PHKG2; assay type: subcellular; conditions: lysate
# T2 sequence (whole entry): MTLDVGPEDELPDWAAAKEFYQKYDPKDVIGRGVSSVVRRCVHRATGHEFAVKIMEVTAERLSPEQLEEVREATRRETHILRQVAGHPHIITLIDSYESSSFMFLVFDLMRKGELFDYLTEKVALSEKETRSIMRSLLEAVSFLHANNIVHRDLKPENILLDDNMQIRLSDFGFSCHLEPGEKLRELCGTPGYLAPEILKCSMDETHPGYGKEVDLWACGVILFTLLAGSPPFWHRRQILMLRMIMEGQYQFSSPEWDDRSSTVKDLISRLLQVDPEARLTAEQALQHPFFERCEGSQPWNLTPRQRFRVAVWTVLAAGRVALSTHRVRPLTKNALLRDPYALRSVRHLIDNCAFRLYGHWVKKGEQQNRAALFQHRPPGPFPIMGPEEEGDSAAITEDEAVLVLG
# [5] = target: Tyrosine-protein kinase Fyn (Homo sapiens) (UniProt P06241); assay: Selectivity interaction (Kinase screening (Upstate/Millipore)) EUB0000604a FYN
# Sequence of Tyrosine-protein kinase Fyn (Homo sapiens) (P06241 2-537 limits assumed): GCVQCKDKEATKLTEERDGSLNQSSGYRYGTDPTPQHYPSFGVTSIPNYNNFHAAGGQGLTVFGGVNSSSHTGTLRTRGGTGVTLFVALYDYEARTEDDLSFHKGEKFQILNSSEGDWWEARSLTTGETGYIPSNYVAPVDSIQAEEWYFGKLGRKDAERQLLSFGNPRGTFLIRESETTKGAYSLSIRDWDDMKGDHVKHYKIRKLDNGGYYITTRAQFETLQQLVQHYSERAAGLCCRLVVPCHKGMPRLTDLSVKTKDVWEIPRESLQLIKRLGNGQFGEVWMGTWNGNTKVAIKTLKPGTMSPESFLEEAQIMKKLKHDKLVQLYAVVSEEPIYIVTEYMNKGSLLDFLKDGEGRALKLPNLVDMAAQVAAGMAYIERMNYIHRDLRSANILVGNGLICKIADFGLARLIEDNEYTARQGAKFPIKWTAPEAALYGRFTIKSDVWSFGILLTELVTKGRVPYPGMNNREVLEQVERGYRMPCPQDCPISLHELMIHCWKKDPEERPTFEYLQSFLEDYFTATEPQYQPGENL
# [6] = target: Sodium-dependent serotonin transporter (Homo sapiens, UniProt P31645); assay: Selectivity interaction (GPCR panel (PDSP screen)) EUB0001079a SLC6A4; conditions: at 10 µM
# Sequence of Sodium-dependent serotonin transporter (P31645 whole entry, looked up): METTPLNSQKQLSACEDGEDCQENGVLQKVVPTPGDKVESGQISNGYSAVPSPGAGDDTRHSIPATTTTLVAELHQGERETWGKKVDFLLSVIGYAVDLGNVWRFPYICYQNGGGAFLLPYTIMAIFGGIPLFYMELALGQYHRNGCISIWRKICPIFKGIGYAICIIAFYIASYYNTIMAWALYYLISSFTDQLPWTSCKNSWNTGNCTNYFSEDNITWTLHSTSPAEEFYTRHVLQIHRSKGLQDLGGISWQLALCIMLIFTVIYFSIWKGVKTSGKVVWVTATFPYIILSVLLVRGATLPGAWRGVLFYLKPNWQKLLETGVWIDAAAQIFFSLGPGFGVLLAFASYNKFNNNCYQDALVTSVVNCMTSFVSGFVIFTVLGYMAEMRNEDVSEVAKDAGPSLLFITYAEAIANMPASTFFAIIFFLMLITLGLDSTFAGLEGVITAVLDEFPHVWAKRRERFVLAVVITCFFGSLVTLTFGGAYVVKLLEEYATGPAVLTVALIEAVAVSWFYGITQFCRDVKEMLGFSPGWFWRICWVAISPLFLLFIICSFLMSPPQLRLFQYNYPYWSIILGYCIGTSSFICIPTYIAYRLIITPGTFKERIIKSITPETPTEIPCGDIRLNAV
# [7] = target: Serine/threonine-protein kinase 10 (Homo sapiens) (UniProt O94804); assay: Selectivity interaction (Kinase panel (KiNativ target engagement assay in Jurkat cells)) EUB0001635a STK10; assay type: cell-based; conditions: Selectivity number of off-targets 0.0, Selectivity number of targets 233.0, Source Knowledge https://www.sciencedirect.com/science/article/pii/S2451945619300674?via%3Dihub, at 1 µM
# Sequence of Serine/threonine-protein kinase 10 (Homo sapiens) (O94804 whole entry, looked up): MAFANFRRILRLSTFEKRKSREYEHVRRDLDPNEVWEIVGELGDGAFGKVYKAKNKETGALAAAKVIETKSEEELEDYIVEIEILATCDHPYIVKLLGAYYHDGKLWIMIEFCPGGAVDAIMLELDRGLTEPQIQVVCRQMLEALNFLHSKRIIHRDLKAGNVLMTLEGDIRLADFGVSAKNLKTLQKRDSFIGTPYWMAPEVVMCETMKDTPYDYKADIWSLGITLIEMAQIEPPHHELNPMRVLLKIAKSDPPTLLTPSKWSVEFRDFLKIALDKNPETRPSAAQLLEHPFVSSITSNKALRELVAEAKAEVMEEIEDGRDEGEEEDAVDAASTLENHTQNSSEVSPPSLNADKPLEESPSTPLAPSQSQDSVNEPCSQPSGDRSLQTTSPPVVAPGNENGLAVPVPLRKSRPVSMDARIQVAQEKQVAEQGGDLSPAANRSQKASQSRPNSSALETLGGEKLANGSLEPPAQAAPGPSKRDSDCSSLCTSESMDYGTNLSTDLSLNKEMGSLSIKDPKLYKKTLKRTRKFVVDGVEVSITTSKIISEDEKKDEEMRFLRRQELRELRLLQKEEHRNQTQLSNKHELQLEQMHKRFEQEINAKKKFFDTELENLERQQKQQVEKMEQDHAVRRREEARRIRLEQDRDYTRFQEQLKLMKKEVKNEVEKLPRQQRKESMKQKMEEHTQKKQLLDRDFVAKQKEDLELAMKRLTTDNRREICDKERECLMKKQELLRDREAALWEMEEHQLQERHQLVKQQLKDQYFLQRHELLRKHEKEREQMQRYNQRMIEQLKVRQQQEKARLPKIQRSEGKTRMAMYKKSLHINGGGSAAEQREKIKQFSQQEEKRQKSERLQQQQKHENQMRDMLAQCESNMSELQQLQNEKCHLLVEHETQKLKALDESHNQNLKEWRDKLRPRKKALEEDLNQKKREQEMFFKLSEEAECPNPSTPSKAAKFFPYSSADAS
# [8] = target: Serine/threonine-protein kinase 32C (Homo sapiens) (UniProt Q86UX6); assay: Selectivity interaction (KinomeScan (DiscoverX)) EUB0000229b STK32C; conditions: at 10 µM
# Sequence of Serine/threonine-protein kinase 32C (Homo sapiens) (Q86UX6 whole entry): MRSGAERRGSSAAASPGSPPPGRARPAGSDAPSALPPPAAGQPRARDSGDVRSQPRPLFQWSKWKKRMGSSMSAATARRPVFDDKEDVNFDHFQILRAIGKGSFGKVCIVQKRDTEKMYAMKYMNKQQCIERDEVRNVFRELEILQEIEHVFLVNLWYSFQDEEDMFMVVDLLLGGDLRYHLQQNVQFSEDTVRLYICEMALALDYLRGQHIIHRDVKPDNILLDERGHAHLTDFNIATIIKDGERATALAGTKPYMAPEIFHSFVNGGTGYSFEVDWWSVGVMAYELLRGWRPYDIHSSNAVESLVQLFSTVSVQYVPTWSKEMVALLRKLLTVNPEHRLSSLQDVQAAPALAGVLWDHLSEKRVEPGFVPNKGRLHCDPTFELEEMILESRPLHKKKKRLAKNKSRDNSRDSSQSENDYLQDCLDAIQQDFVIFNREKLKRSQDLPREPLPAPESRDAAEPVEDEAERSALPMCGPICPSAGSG
# [9] = target: T3, Serine/threonine-protein kinase TBK1 (Homo sapiens) (UniProt Q9UHD2); conditions: at 10 µM
# T3 sequence (whole entry): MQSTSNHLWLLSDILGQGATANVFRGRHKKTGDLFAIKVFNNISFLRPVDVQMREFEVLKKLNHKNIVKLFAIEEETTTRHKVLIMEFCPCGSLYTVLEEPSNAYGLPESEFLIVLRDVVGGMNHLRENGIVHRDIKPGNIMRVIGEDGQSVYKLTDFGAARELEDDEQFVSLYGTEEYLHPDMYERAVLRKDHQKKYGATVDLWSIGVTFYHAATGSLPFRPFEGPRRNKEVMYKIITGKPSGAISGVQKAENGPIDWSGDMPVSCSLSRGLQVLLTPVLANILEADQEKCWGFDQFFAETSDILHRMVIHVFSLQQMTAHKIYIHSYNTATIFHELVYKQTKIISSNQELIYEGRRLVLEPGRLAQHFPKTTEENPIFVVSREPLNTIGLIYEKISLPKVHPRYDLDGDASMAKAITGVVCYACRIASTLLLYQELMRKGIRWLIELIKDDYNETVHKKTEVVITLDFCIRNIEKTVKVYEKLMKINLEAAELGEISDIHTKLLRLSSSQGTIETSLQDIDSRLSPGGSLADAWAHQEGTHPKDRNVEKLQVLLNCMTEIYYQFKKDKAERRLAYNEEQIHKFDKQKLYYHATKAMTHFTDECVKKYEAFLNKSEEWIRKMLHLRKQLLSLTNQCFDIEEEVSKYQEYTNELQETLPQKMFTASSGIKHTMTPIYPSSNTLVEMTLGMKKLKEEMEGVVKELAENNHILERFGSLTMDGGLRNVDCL
# [10] = target: T4, SNF-related serine/threonine-protein kinase (Homo sapiens) (UniProt Q9NRH2); assay: Selectivity interaction (KinomeScan (DiscoverX)) EUB0001619a SNRK; conditions: at 1 µM
# T4 sequence (whole entry): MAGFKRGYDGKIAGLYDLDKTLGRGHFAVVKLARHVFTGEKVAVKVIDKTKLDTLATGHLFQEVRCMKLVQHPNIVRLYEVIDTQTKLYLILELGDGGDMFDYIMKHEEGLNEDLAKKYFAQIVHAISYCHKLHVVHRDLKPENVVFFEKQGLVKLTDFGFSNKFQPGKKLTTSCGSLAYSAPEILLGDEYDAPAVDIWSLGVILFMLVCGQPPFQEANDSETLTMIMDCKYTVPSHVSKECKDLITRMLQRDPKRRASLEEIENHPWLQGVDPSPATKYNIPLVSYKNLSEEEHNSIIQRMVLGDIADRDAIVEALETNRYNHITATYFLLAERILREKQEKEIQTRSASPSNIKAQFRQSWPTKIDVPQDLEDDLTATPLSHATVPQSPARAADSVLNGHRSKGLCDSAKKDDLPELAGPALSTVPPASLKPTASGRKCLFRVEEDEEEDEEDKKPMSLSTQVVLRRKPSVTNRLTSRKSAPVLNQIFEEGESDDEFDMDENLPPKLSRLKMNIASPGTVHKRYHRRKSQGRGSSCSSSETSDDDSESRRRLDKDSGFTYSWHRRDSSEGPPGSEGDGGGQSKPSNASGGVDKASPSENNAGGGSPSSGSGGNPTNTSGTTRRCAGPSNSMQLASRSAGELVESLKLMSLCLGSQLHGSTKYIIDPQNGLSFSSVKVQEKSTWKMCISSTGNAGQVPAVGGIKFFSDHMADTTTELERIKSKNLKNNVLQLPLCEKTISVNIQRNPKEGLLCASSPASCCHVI
# Sequence of Cyclin-dependent kinase 9 (P50750 whole entry): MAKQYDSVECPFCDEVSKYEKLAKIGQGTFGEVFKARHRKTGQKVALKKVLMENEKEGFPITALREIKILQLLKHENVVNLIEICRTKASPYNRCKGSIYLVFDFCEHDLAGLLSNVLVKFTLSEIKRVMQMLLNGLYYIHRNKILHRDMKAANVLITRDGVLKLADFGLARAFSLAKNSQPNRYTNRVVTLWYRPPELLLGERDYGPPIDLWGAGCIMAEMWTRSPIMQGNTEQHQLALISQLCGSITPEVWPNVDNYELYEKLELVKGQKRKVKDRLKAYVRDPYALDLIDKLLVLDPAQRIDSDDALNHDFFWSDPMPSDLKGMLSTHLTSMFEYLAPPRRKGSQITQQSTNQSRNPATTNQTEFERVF
# Sequence of Cyclin-dependent kinase 17 (Homo sapiens) (Q00537 whole entry, looked up): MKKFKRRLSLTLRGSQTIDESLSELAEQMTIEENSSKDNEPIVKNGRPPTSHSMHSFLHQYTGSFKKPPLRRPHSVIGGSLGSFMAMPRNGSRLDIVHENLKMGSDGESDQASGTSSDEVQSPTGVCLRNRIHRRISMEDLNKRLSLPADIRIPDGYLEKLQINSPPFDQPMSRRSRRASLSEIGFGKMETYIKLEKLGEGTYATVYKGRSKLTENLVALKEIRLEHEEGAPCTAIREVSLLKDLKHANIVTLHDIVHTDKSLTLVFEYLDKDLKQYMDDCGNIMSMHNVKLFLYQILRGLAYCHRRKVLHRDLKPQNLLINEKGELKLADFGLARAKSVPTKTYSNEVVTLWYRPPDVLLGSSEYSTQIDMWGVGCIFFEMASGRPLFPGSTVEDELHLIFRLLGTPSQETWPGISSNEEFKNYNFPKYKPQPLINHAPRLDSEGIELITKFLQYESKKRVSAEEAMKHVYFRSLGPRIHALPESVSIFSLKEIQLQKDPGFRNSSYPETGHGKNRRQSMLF
smiles,measurement,setting,value
CCN(CC)CCCCNc1ncc2cc(-c3cc(OC)cc(OC)c3)c(NC(=O)NC(C)(C)C)nc2n1,% of control,[1],100%
same,% of control,[2],100%
CC[C@@H]1[C@H](F)C(=O)N[C@@H]1COc1nccc2cc(C(N)=O)c(OC)cc12 [ZIMLOVISERTIB],% of inhibition,[3]; at 0.01 µM,4.9%
same,% of inhibition,[3]; at 0.04 µM,-1.3%
same,% of inhibition,[3]; at 0.2 µM,-1%
same,% of inhibition,[3]; at 1 µM,20%
same,% of inhibition,[3]; at 5 µM,64.4%
same,% of inhibition,[4]; at 0.01 µM,15.9%
same,% of inhibition,[4]; at 0.04 µM,3.7%
same,% of inhibition,[4]; at 0.2 µM,0.2%
same,% of inhibition,[4]; at 1 µM,-8.2%
same,% of inhibition,[4]; at 5 µM,7%
Cc1cnc(Nc2ccc(F)cc2Cl)nc1-c1c[nH]c(C(=O)N[C@H](CO)c2cccc(Cl)c2)c1,% of inhibition,[5],11%
Nc1cnc(N2CCc3cc(S(=O)(=O)Nc4c(F)cc(Cl)cc4F)cc(N4CCCC4=O)c32)nc1 [TP-020n],% of inhibition,[6],9.34%
C=CC(=O)Nc1ccc(C(=O)Nc2[nH]nc3c2CN(C(=O)N[C@H](CN(C)C)c2ccccc2)C3(C)C)cc1,% of engagement,[7],-2.2%
COc1cc(N(C)c2ccnc3ccc(C(F)(F)F)cc23)cc(OC)c1OC,% binding,[8],99%
Cc1cc([C@@H](C)Nc2ccccc2C(=O)O)c2nc(N3CCOCC3)cc(=O)n2c1 [AZD-6482],% of control,[9],100%
N#Cc1cccc(-c2c[nH]c3ncnc(N4CCOCC4)c23)c1,% of control,[10],100%
